Laboratory results as given in the supplement of paper PMC10307832.

How the values were obtained:
Assay in all cases: relative viability (nuclei count vs DMSO), 5 days (fraction); higher = more cells survive
[1] = compound: C1CC1C(=O)NC2=NNC3=C2C=CC(=C3)C4=CC(=CC=C4)C(=O)NC5CC5 [XMD13-2] + CC(=O)c1c(C)c2cnc(Nc3ccc(N4CCNCC4)cn3)nc2n(C2CCCC2)c1=O [Palbociclib] (partner 0.5 µM)
Procedure, shortened: (§1)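 Relative viability was taken as the ratio of nuclei in treated wells to nuclei in vehicle wells. Lung cancer cell lines in 1536-well plates received compounds by pin tool one day after seeding, either one drug alone or a fixed anchor-drug dose plus five library-drug doses (not always all listed) in √10 steps. Nuclei were counted on 4× images after 5 days of treatment, and values are medians of duplicate plates.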

[2] = compound: Cc1ccc(C(=O)Nc2cccc(C(F)(F)F)c2)cc1Nc1cncc(C(N)=O)c1 [ALW-II-49-7] + N=C(N)NC(=N)NCCc1ccccc1 [Phenformin] (partner 250 µM)
Procedure, shortened: as §1

[3] = compound: Cc1nc(Nc2ncc(C(=O)Nc3c(C)cccc3Cl)s2)cc(N2CCN(CCO)CC2)n1 [Dasatinib] + CCNC(=O)c1noc(-c2cc(C(C)C)c(O)cc2O)c1-c1ccc(CN2CCOCC2)cc1 [Luminespib] (partner 0.01 µM)
Procedure, shortened: as §1

[4] = compound: Cc1nc(Nc2ncc(C(=O)Nc3c(C)cccc3Cl)s2)cc(N2CCN(CCO)CC2)n1 [Dasatinib] + Nc1nc2[nH]cc(CCc3ccc(C(=O)N[C@@H](CCC(=O)O)C(=O)O)cc3)c2c(=O)[nH]1 [Pemetrexed] (partner 0.2 µM)
Procedure, shortened: as §1

Row | Cell Line | relative viability ([1]; first compound 0.05 µM) | relative viability ([1]; first compound 0.1581 µM) | relative viability ([1]; first compound 0.5 µM) | relative viability ([1]; first compound 1.581 µM) | relative viability ([1]; first compound 5 µM) | relative viability ([2]; first compound 0.08 µM) | relative viability ([2]; first compound 0.253 µM) | relative viability ([2]; first compound 0.8 µM) | relative viability ([2]; first compound 2.53 µM) | relative viability ([2]; first compound 8 µM) | relative viability ([3]; first compound 0.005 µM) | relative viability ([3]; first compound 0.05 µM) | relative viability ([3]; first compound 0.1581 µM) | relative viability ([3]; first compound 0.5 µM) | relative viability ([4]; first compound 0.005 µM) | relative viability ([4]; first compound 0.01581 µM) | relative viability ([4]; first compound 0.05 µM) | relative viability ([4]; first compound 0.1581 µM) | relative viability ([4]; first compound 0.5 µM) | relative viability ([3]; first compound 0.01581 µM)
1 | LU99A | 0.402 | 0.38 | 0.391 | 0.402 | 0.27 | 0.845 | 0.923 | 0.82 | 0.988 | 0.746 | 0.229 | 0.247 | 0.143 | 0.166 | 0.191 | 0.158 | 0.192 | 0.176 | 0.16 | –
2 | LCLC-97TM1 | 0.217 | 0.284 | 0.229 | 0.219 | 0.182 | 0.44 | 0.425 | 0.451 | 0.393 | 0.459 | 0.844 | 0.901 | 0.598 | 0.309 | 0.195 | 0.184 | 0.177 | 0.182 | 0.143 | 0.798
3 | LC-2-ad | 0.504 | 0.477 | 0.538 | 0.486 | 0.47 | 0.478 | 0.555 | 0.58 | 0.638 | 0.531 | 1.1 | 0.86 | 0.774 | 0.376 | 0.262 | 0.253 | 0.256 | 0.237 | 0.214 | 1.11
4 | NCI-H1395 | 0.757 | 0.634 | 0.631 | 0.656 | 0.715 | 0.438 | 0.512 | 0.419 | 0.475 | 0.428 | 0.684 | 0.663 | 0.443 | 0.363 | 0.987 | 1.01 | 0.603 | 0.369 | 0.368 | 0.627
5 | NCI-H2228 | 1.03 | 0.779 | 0.724 | 0.709 | 0.818 | 0.286 | 0.215 | 0.328 | 0.251 | 0.334 | 0.158 | 0.145 | 0.0907 | 0.101 | 0.323 | 0.325 | 0.319 | 0.259 | 0.128 | 0.095
6 | NCI-H1944 | 0.323 | 0.312 | 0.325 | 0.351 | 0.322 | 0.193 | 0.231 | 0.18 | 0.176 | 0.138 | 0.73 | 0.609 | 0.448 | 0.129 | 0.573 | 0.583 | 0.49 | 0.234 | 0.158 | 0.625
7 | HOP-62 | 0.464 | 0.485 | 0.448 | 0.413 | 0.348 | 0.585 | 0.598 | 0.611 | 0.696 | 0.429 | 0.853 | 0.92 | 0.648 | 0.485 | 0.284 | 0.279 | 0.352 | 0.326 | 0.274 | 0.858
8 | NCI-H2347 | 0.471 | 0.424 | 0.465 | 0.382 | 0.471 | 0.455 | 0.334 | 0.329 | 0.26 | 0.297 | 0.404 | 0.266 | 0.23 | 0.276 | 0.375 | 0.38 | 0.342 | 0.253 | 0.259 | 0.359
